Several values for one entry are separate records, joined by “and”; a condition that tells them apart may be missing. Identical values can stand only once. Like-named read-outs stand apart in the source and are kept apart here.
Assays:
[1] = Ocular tissue and plasma pharmacokinetics, 50 mg/kg BID oral, Dutch Belted rabbits (Example 4/5); type: in vivo; conditions: for concentration at 96 h / concentration at 168 h / concentration at 0 h / concentration at 1 h / concentration at 6 h / concentration at 24 h / concentration at 240 h: 50 mg/kg
Protocol: Study design, including group designation and dose levels, are outlined in Table 15. […] Two Dutch Belted rabbits received vehicle only oral gavage doses for tolerability assessment. […] The dose volume was 5 mL/kg/dose for all groups. Safety was assessed with toxicological and ophthalmic examinations, including slit lamp biomicroscopy, indirect ophthalmoscopy, rebound tonometry, and ultrasonic corneal pachymetry.
For the pharmacokinetic determination, a single blood sample was taken from each rabbit from Groups 1 and 4 at one hour post-dose on Day 15, Group 2 at one hour post-dose on Day 8, and Group 3 at pre-dose, 1, 6, 24, 96, 168, and 240 hours post-dose on Day 15, with the eyes collected at the same time as blood sampling. Plasma, vitreous humor (VH), retina, choroid-retina pigmented epithelium (Choroid-RPE), optic nerve (ON), and iris-ciliary body (I-CB) were analyzed by LC-MS/MS to quantify test article concentrations. The lower limit of quantitation (LLOQ) in plasma and vitreous humor was 1.0 ng/mL. The LLOQ was 6.0 ng/g in retina, choroid-RPE, and I-CB and the optic nerve LLOQ was 15 ng/g, assuming tissue density of 1 g/mL where relevant. […]

[2] = Multiple ascending dose (MAD) pharmacokinetics in humans; type: in vivo
AP activity [3] = assay: cells; conditions: Oryctolagus cuniculus, Erythrocyte, read-out: IC50 for rabbit erythrocyte hemolysis
AP activity [4] = assay: cells; conditions: Erythrocyte, read-out: IC50 for PNH erythrocyte hemolysis
[5] = male, Dutch Belted, po, Optic Nerve, DB rabbit, 50 mg/kg BID, Day 15
[6] = male, Dutch Belted, po, Plasma, DB rabbit, 50 mg/kg BID, Day 15
[7] = male, Dutch Belted, po, Retina, DB rabbit, 50 mg/kg BID, Day 15
[8] = male, Dutch Belted, po, Vitreous Humor, DB rabbit, 50 mg/kg BID, Day 15

CC(=O)c1nn(CC(=O)N2C[C@H](F)C[C@H]2C(=O)Nc2cccc(Br)n2)c2ccc(-c3cnc(C)nc3)cc12 [Compound 1, (2S,4R)-1-(2-(3-Acetyl-5-(2-methylpyrimidin-5-yl)-1H-indazol-1-yl)acetyl)-N-(6-bromopyridin-2-yl)-4-fluoropyrrolidine-2-carboxamide]
Tmax [1, 5]: 1 h
half-life [1, 5]: 7.82 h
AUC(0-inf) [1, 6]: 10.1 µg·h/mL
Cmax [1, 6]: 2.9 µg/mL
MRT last [1, 6]: 4.73 h
Tmax [1, 6]: 1 h
half-life [1, 6]: 5.98 h
AUC(0-t) ([1]; male, Dutch Belted, po, Plasma, DB rabbit, 50 mg/kg BID, Day 15, read-out: AUC0-t): 9.79 µg·h/mL
Cmax [1, 7]: 2120 ng/g
MRT last [1, 7]: 53.2 h
Tmax [1, 7]: 1 h
half-life [1, 7]: 96.1 h
Cmax [1, 8]: 49.2 ng/g and 49.2 ng/mL
MRT last [1, 8]: 7.27 h
Tmax [1, 8]: 1 h
half-life [1, 8]: 5.44 h
AUC(0-t) ([1]; male, Dutch Belted, po, Vitreous Humor, DB rabbit, 50 mg/kg BID, Day 15, read-out: AUClast): 0.419 µg·h/mL
concentration at 96 h ([1]; male, Dutch Belted, rabbit, choroid-RPE, oral, DB rabbits, Day 15, 50 mg/kg BID, 96 hr, read-out: Mean Choroid-RPE Concentration): 873 ng/g
concentration at 168 h ([1]; male, Dutch Belted, rabbit, choroid-RPE, oral, DB rabbits, Day 15, 50 mg/kg BID, 168 hr, read-out: Mean Choroid-RPE Concentration): 645 ng/g
concentration at 0 h ([1]; male, Dutch Belted, rabbit, choroid-RPE, po, DB rabbit, 50 mg/kg BID oral, Day 15, 0 h, read-out: Mean Choroid-RPE concentration): 3920 ng/g
concentration at 1 h ([1]; male, Dutch Belted, rabbit, choroid-RPE, po, DB rabbit, 50 mg/kg BID oral, Day 15, 1 h, read-out: Mean Choroid-RPE concentration): 8020 ng/g
concentration at 6 h ([1]; male, Dutch Belted, rabbit, choroid-RPE, po, DB rabbit, 50 mg/kg BID oral, Day 15, 6 h, read-out: Mean Choroid-RPE concentration): 4370 ng/g
concentration at 24 h ([1]; male, Dutch Belted, rabbit, choroid-RPE, po, DB rabbit, 50 mg/kg BID oral, Day 15, 24 h, read-out: Mean Choroid-RPE concentration): 2100 ng/g
concentration at 240 h ([1]; male, Dutch Belted, rabbit, choroid-RPE, po, DB rabbit, 50 mg/kg BID oral, Day 15, 240 h, read-out: Mean Choroid-RPE concentration): 194 ng/g
concentration at 0 h ([1]; male, Dutch Belted, rabbit, iris-ciliary body, po, DB rabbit, 50 mg/kg BID oral, Day 15, 0 h, read-out: Mean Iris-Ciliary Body concentration): 5080 ng/g
concentration at 1 h ([1]; male, Dutch Belted, rabbit, iris-ciliary body, po, DB rabbit, 50 mg/kg BID oral, Day 15, 1 h, read-out: Mean Iris-Ciliary Body concentration): 11500 ng/g
concentration at 6 h ([1]; male, Dutch Belted, rabbit, iris-ciliary body, po, DB rabbit, 50 mg/kg BID oral, Day 15, 6 h, read-out: Mean Iris-Ciliary Body concentration): 8820 ng/g
concentration at 24 h ([1]; male, Dutch Belted, rabbit, iris-ciliary body, po, DB rabbit, 50 mg/kg BID oral, Day 15, 24 h, read-out: Mean Iris-Ciliary Body concentration): 5560 ng/g
concentration at 96 h ([1]; male, Dutch Belted, rabbit, iris-ciliary body, po, DB rabbit, 50 mg/kg BID oral, Day 15, 96 h, read-out: Mean Iris-Ciliary Body concentration): 2840 ng/g
concentration at 168 h ([1]; male, Dutch Belted, rabbit, iris-ciliary body, po, DB rabbit, 50 mg/kg BID oral, Day 15, 168 h, read-out: Mean Iris-Ciliary Body concentration): 2290 ng/g
concentration at 240 h ([1]; male, Dutch Belted, rabbit, iris-ciliary body, po, DB rabbit, 50 mg/kg BID oral, Day 15, 240 h, read-out: Mean Iris-Ciliary Body concentration): 1620 ng/g
concentration at 0 h ([1]; male, Dutch Belted, rabbit, optic nerve, po, DB rabbit, 50 mg/kg BID oral, Day 15, 0 h, read-out: Optic Nerve concentration): 45.3 ng/g
concentration at 1 h ([1]; male, Dutch Belted, rabbit, optic nerve, po, DB rabbit, 50 mg/kg BID oral, Day 15, 1 h, read-out: Optic Nerve concentration): 1550 ng/g
concentration at 6 h ([1]; male, Dutch Belted, rabbit, optic nerve, po, DB rabbit, 50 mg/kg BID oral, Day 15, 6 h, read-out: Optic Nerve concentration): 133 ng/g
concentration at 24 h ([1]; male, Dutch Belted, rabbit, optic nerve, po, DB rabbit, 50 mg/kg BID oral, Day 15, 24 h, read-out: Optic Nerve concentration): 27 ng/g
concentration at 0 h ([1]; male, Dutch Belted, rabbit, plasma, po, DB rabbit, 50 mg/kg BID oral, Day 15, 0 h, read-out: Mean plasma concentration): 0.104 µg/mL
concentration at 1 h ([1]; male, Dutch Belted, rabbit, plasma, po, DB rabbit, 50 mg/kg BID oral, Day 15, 1 h, read-out: Mean plasma concentration): 2.9 µg/mL
concentration at 6 h ([1]; male, Dutch Belted, rabbit, plasma, po, DB rabbit, 50 mg/kg BID oral, Day 15, 6 h, read-out: Mean plasma concentration): 0.32 µg/mL
concentration at 24 h ([1]; male, Dutch Belted, rabbit, plasma, po, DB rabbit, 50 mg/kg BID oral, Day 15, 24 h, read-out: Mean plasma concentration): 0.0399 µg/mL
concentration at 0 h ([1]; male, Dutch Belted, rabbit, retina, oral, DB rabbits, Day 15, 50 mg/kg BID, 0 hr, read-out: Mean Retina Concentration): 159 ng/g
concentration at 1 h ([1]; male, Dutch Belted, rabbit, retina, oral, DB rabbits, Day 15, 50 mg/kg BID, 1 hr, read-out: Mean Retina Concentration): 2120 ng/g
concentration at 6 h ([1]; male, Dutch Belted, rabbit, retina, oral, DB rabbits, Day 15, 50 mg/kg BID, 6 hr, read-out: Mean Retina Concentration): 725 ng/g
concentration at 24 h ([1]; male, Dutch Belted, rabbit, retina, oral, DB rabbits, Day 15, 50 mg/kg BID, 24 hr, read-out: Mean Retina Concentration): 265 ng/g
concentration at 96 h ([1]; male, Dutch Belted, rabbit, retina, oral, DB rabbits, Day 15, 50 mg/kg BID, 96 hr, read-out: Mean Retina Concentration): 32.3 ng/g
concentration at 168 h ([1]; male, Dutch Belted, rabbit, retina, oral, DB rabbits, Day 15, 50 mg/kg BID, 168 hr, read-out: Mean Retina Concentration): 54.9 ng/g
concentration at 240 h ([1]; male, Dutch Belted, rabbit, retina, oral, DB rabbits, Day 15, 50 mg/kg BID, 240 hr, read-out: Mean Retina Concentration): 39.4 ng/g
concentration at 0 h ([1]; male, Dutch Belted, rabbit, retina, po, DB rabbit, 50 mg/kg BID oral, Day 15, 0 h, read-out: Mean retina concentration): 159 ng/g
concentration at 1 h ([1]; male, Dutch Belted, rabbit, retina, po, DB rabbit, 50 mg/kg BID oral, Day 15, 1 h, read-out: Mean retina concentration): 2120 ng/g
concentration at 6 h ([1]; male, Dutch Belted, rabbit, retina, po, DB rabbit, 50 mg/kg BID oral, Day 15, 6 h, read-out: Mean retina concentration): 725 ng/g
concentration at 24 h ([1]; male, Dutch Belted, rabbit, retina, po, DB rabbit, 50 mg/kg BID oral, Day 15, 24 h, read-out: Mean retina concentration): 265 ng/g
concentration at 96 h ([1]; male, Dutch Belted, rabbit, retina, po, DB rabbit, 50 mg/kg BID oral, Day 15, 96 h, read-out: Mean retina concentration): 32.3 ng/g
concentration at 168 h ([1]; male, Dutch Belted, rabbit, retina, po, DB rabbit, 50 mg/kg BID oral, Day 15, 168 h, read-out: Mean retina concentration): 54.9 ng/g
concentration at 240 h ([1]; male, Dutch Belted, rabbit, retina, po, DB rabbit, 50 mg/kg BID oral, Day 15, 240 h, read-out: Mean retina concentration): 39.3 ng/g
concentration at 0 h ([1]; male, Dutch Belted, rabbit, vitreous humor, po, DB rabbit, 50 mg/kg BID oral, Day 15, 0 h, read-out: Vitreous concentration): 2.91 ng/g
concentration at 1 h ([1]; male, Dutch Belted, rabbit, vitreous humor, po, DB rabbit, 50 mg/kg BID oral, Day 15, 1 h, read-out: Vitreous concentration): 49.2 ng/g
concentration at 6 h ([1]; male, Dutch Belted, rabbit, vitreous humor, po, DB rabbit, 50 mg/kg BID oral, Day 15, 6 h, read-out: Vitreous concentration): 28.7 ng/g
concentration at 24 h ([1]; male, Dutch Belted, rabbit, vitreous humor, po, DB rabbit, 50 mg/kg BID oral, Day 15, 24 h, read-out: Vitreous concentration): 2.9 ng/g
Tlast ([1]; plasma, DB rabbit, 50 mg/kg BID, Day 15): 24 h
C-RPE drug concentration at least 10 days following the last oral administration ([1]; rabbit, 50 mg/kg BID): 196 ng/mL
Steady state conditions reached ([2]; MAD study): Day 2
Tmax ([2]; human, in vivo, 200 to 800 mg BID and 75 mg TID, read-out: Median time to maximum concentration (Tmax)): 1 to 2.3 h
IC50 (AP activity [3]): 0.027 µM
IC50 (AP activity [4]): 0.014 µM

— patent US20230126447A1, “OCULAR DRUG DEPOT FOR COMPLEMENT-MEDIATED DISORDERS” (priority 2020, published 2023)
